ChEMBL document CHEMBL1157712, “Hit to lead account of the discovery of bisbenzamide and related ureidobenzamide inhibitors of Rho kinase” (J Med Chem, 2010)
Blank lines part the entries; values can stand above or below the compound they belong to.

Legend:
[1] = biological target: T1, Rho-associated protein kinase 2 (Homo sapiens, UniProt O75116)
Description: (§2) Inhibition of human ROCK2 by homogenous luciferase assay

[2] = biological target: T1, Rho-associated protein kinase 2; remark: listed apart in the source
Description: as §2

[3] = biological target: T1, Rho-associated protein kinase 2; experiment: Inhibition of human ROCK2 by IMAP assay
[4] = biological target: T2, Cytochrome P450 1A2 (Homo sapiens, UniProt P05177); experiment: Inhibition of human CYP1A2 by fluorescence assay; type: ADME
T2 sequence (P05177 whole entry): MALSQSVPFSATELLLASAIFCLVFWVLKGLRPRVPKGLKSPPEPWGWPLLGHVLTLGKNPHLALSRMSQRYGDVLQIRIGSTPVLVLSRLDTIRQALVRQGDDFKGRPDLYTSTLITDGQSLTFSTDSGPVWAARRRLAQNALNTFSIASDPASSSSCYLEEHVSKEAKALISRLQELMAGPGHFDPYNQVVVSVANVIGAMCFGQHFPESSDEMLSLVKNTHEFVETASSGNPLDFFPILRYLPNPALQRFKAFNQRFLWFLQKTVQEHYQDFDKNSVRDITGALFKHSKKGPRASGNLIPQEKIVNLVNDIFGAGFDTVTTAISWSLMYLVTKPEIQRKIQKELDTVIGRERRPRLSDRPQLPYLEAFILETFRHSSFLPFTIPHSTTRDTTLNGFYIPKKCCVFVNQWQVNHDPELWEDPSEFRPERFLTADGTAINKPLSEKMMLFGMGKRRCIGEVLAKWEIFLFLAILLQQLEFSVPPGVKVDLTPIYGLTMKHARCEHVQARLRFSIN

[5] = biological target: Serine/threonine-protein kinase MRCK beta (Homo sapiens) (UniProt Q9Y5S2); experiment: Inhibition of CDC42BPB
Serine/threonine-protein kinase MRCK beta (Homo sapiens), sequence (Q9Y5S2 whole entry, looked up): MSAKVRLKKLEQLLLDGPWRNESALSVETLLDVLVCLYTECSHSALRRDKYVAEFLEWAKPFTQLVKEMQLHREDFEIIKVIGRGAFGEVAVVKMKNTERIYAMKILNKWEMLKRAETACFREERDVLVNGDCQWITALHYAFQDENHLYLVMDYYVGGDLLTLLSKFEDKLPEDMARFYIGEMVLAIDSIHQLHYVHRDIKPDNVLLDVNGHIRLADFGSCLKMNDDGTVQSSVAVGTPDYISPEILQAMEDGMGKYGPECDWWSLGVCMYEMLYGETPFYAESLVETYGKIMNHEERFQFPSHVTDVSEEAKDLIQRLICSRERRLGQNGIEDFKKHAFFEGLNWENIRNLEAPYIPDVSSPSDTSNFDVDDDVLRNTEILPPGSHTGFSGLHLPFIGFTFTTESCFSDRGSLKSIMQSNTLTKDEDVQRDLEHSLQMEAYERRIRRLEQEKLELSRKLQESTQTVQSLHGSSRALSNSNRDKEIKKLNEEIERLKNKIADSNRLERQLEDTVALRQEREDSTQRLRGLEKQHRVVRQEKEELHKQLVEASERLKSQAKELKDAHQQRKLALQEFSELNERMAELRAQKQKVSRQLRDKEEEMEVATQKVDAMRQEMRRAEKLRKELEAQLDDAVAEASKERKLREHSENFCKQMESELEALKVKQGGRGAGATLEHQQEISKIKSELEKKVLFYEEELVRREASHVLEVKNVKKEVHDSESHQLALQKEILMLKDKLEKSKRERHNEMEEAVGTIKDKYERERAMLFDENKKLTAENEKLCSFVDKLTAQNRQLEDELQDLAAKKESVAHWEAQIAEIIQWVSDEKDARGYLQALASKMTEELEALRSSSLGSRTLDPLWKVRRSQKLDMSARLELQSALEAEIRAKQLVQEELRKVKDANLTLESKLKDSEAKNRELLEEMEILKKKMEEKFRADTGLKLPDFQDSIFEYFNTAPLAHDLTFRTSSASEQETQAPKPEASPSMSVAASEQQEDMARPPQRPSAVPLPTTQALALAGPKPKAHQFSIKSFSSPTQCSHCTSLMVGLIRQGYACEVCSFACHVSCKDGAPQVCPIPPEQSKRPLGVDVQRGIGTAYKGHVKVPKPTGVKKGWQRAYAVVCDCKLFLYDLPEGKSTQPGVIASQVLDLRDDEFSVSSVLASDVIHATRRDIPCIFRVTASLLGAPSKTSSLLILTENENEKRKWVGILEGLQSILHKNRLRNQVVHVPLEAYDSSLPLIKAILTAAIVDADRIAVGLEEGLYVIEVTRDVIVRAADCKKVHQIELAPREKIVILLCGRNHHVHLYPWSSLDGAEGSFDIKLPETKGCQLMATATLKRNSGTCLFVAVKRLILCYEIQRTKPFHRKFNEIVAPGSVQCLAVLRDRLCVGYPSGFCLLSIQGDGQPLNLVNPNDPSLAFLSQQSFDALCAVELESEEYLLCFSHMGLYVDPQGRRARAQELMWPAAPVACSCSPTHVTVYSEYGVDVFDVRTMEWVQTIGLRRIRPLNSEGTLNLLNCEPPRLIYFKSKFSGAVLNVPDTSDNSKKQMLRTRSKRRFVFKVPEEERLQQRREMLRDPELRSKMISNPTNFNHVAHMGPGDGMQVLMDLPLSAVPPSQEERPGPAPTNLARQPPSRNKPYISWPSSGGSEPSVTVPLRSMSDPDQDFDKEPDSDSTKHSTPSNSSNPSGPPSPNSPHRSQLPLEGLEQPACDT

[6] = Permeability from basolateral to apical side in human Caco-2 cells; type: ADME, cell-based; details: read-out: permeability
[7] = species: Rattus norvegicus; experiment: Induction of relaxation activity of phenylephrine-induced Sprague-Dawley rat aortic ring contraction; type: functional; details: Aorta
[8] = Solubility at pH 7.4; type: physicochemical; details: buffer
[9] = biological target: Cytochrome P450 2C9 (Homo sapiens, UniProt P11712); experiment: Inhibition of human CYP2C9 by fluorescence assay; type: ADME
Cytochrome P450 2C9, sequence (P11712 whole entry): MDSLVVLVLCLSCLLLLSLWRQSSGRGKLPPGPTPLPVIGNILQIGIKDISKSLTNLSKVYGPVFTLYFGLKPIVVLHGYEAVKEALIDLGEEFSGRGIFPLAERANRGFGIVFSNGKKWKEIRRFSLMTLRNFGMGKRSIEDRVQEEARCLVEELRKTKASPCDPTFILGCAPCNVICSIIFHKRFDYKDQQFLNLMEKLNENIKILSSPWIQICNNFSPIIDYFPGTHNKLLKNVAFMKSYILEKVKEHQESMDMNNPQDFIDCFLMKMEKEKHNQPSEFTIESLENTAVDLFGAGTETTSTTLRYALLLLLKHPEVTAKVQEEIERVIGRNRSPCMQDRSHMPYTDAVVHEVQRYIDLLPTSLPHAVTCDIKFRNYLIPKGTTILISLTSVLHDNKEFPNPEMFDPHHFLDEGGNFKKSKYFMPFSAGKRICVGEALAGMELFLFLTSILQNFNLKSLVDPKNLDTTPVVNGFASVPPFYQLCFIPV

[10] = biological target: T3, Cytochrome P450 3A4 (Homo sapiens, UniProt P08684); experiment: Inhibition of human CYP3A4 using BQ substrate by fluorescence assay; type: ADME
T3 sequence (P08684 whole entry): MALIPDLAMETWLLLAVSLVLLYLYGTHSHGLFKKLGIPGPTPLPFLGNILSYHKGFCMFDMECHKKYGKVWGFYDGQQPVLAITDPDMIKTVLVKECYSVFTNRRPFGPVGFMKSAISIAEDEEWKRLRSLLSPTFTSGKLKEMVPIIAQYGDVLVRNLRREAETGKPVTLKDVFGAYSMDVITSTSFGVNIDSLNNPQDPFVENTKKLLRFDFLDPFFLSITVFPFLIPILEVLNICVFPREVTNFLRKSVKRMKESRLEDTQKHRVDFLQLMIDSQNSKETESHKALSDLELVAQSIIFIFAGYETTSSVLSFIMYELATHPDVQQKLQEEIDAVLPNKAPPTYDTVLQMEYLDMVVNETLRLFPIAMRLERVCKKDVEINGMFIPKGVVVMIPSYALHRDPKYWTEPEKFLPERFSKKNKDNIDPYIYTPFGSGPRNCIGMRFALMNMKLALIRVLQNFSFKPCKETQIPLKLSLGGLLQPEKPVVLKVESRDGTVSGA

[11] = biological target: T4, Protein kinase C epsilon type (Homo sapiens, UniProt Q02156); experiment: Inhibition of PKCepsilon
T4 sequence (Q02156 whole entry): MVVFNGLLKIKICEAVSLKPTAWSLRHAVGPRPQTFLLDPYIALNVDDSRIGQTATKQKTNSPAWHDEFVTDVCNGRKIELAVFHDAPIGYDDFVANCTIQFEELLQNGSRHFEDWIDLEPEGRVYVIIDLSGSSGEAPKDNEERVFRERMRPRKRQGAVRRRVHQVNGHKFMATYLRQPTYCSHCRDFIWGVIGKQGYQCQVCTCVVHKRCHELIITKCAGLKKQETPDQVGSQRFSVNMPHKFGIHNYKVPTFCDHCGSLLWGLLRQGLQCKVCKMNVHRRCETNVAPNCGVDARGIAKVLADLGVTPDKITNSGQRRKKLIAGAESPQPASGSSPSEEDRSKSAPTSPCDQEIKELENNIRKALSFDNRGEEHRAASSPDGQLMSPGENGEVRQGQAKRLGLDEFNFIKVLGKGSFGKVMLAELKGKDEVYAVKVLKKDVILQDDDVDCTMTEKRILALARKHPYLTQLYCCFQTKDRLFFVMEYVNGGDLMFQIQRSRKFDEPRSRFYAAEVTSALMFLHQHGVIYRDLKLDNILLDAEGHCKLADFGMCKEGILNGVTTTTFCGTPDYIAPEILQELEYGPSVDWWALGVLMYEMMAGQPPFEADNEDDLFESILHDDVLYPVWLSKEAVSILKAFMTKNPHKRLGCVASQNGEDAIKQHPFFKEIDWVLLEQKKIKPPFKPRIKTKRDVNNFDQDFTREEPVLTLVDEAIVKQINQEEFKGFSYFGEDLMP

[12] = biological target: Cytochrome P450 2C19 (Homo sapiens, UniProt P33261); experiment: Inhibition of human CYP2C19 by fluorescence assay; type: ADME
[13] = biological target: T3, Cytochrome P450 3A4; experiment: Inhibition of human CYP3A4 using BFC substrate by fluorescence assay; type: ADME
[14] = Metabolic stability in human liver microsomes assessed as half life; type: ADME, Microsome
[15] = Membrane permeability by PAMPA assay; type: ADME; details: read-out: permeability
[16] = biological target: Serine/threonine-protein kinase N2 (Homo sapiens, UniProt Q16513)
Serine/threonine-protein kinase N2, sequence (Q16513 whole entry): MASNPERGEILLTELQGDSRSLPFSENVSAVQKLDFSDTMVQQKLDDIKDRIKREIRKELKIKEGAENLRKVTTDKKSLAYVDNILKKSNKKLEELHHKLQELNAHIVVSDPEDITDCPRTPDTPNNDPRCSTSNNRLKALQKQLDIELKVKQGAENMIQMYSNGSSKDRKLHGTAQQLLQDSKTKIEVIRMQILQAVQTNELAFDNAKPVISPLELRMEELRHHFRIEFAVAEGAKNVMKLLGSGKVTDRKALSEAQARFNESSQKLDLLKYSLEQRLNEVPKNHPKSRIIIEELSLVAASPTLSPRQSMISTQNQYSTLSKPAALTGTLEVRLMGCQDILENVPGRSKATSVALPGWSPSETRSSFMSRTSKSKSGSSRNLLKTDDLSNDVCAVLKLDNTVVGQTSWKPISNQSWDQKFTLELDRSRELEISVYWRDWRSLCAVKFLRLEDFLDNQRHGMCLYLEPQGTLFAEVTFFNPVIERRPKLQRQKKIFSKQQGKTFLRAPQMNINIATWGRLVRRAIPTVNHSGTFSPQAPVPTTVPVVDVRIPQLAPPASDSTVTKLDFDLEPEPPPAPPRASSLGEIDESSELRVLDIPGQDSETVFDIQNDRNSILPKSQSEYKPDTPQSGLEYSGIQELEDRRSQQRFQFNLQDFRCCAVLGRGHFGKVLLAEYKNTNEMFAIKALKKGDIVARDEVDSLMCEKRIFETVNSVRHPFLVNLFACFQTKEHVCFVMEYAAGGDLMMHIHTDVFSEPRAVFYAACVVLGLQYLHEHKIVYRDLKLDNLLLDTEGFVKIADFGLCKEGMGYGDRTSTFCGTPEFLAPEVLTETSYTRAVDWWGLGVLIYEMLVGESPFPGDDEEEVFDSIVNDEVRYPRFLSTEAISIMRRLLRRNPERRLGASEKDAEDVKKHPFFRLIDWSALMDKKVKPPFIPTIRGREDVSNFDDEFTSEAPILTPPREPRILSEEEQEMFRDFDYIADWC

[17] = (§1) Permeability from apical to basolateral side in human Caco-2 cells; type: ADME, cell-based; details: Caco-2, read-out: permeability
[18] = biological target: Cytochrome P450 2D6 (Homo sapiens, UniProt P10635); experiment: Inhibition of human CYP2D6 by fluorescence assay; type: ADME
[19] = system: ROCK1 (Homo sapiens); experiment: Inhibition of ROCK1
[20] = system: Caco-2; experiment: as §1; type: ADME, cell-based; details: caco-2, BLD = below limit of detection

T1 sequence (O75116 whole entry): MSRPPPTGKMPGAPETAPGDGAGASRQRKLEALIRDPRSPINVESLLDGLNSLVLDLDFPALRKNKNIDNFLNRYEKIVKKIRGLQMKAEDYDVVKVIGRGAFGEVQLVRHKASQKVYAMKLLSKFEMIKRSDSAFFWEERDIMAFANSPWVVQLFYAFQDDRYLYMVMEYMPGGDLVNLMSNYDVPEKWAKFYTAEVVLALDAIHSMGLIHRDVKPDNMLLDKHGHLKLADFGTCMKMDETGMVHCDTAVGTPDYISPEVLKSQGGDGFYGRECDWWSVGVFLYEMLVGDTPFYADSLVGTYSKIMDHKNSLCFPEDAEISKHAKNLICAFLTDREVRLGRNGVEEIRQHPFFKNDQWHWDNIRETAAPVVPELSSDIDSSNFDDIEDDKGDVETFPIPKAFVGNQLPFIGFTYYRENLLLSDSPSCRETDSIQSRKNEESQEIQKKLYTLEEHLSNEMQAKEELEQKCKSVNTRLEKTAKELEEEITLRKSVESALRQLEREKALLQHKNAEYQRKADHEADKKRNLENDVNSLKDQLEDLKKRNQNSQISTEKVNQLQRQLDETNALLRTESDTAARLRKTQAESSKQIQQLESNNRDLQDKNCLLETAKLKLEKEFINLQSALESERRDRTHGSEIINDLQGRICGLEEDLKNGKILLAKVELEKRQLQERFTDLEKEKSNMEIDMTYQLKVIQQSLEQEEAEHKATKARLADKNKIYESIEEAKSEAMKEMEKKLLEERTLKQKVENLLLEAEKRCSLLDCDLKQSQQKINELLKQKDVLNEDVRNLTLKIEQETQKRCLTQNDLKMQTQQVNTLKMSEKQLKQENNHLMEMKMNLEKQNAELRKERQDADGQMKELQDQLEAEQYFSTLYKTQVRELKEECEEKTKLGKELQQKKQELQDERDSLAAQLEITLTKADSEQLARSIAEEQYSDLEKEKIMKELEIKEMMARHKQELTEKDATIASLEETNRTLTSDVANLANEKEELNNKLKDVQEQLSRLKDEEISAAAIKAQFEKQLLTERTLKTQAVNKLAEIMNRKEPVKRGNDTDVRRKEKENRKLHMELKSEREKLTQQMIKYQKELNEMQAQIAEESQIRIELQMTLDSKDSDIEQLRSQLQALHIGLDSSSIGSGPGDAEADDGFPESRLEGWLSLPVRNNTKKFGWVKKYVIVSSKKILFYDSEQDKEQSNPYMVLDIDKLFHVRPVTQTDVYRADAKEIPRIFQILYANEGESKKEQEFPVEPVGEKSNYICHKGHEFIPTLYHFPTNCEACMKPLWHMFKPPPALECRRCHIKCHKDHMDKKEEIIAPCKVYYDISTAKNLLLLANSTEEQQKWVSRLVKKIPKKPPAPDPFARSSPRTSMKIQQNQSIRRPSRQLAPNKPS

Compound: COc1ccc(NC(=O)Cc2cccc(NC(=O)CCC3CCCNC3)c2)cc1OC (stereo not drawn)
IC50 [1]: 37 µM

Compound: N#Cc1ccc(NC(=O)NCc2cccc(C(=O)NCCC3CCNCC3)c2)cc1
IC50 [1]: 65 µM

Compound: COc1ccc(NC(=O)Nc2cccc(C(=O)NCCC3CCCNC3)c2)cc1OC (stereo not drawn)
IC50 [2]: > 7000 µM

Compound: CN(C)Cc1ccc(NC(=O)c2cccc(CNC(=O)Nc3ccc(C(N)=O)c(Cl)c3)c2)cc1
IC50 [1]: 74 µM
IC50 [3]: 0.18 µM

Compound: N#Cc1ccc(NC(=O)NCc2cccc(C(=O)NCCC3CCCNC3)c2)cc1 (stereo not drawn)
IC50 [5]: > 5 µM
IC50 [19]: 0.031 µM
IC50 [11]: > 5 µM
IC50 [16]: 1.7 µM
IC50 [2]: 0.018 µM

Compound: N#Cc1cccc(NC(=O)NCc2cccc(C(=O)NCCC3CCCNC3)c2)c1 (stereo not drawn)
IC50 [5]: > 5 µM
IC50 [11]: > 5 µM
IC50 [16]: > 5 µM
IC50 [2]: 0.089 µM

Compound: N#Cc1cccc(NC(=O)NCc2cccc(C(=O)NCC3CCCO3)c2)c1 (racemic)
IC50 [2]: 3.5 µM

Compound: N#Cc1ccc(NC(=O)NCc2cccc(C(=O)Nc3ccc4c(c3)CNCC4)c2)cc1
IC50 [4]: > 30 µM
IC50 [5]: > 5 µM
Papp B→A [6]: 8.8 ×10⁻⁶ cm/s
IC50 [7]: 8.5 µM
solubility [8]: > 100 µg/mL
IC50 [9]: 22 µM
IC50 [3]: 0.048 µM
IC50 [10]: > 30 µM
IC50 [11]: > 5 µM
IC50 [12]: > 30 µM
IC50 [13]: 5.9 µM
half-life [14]: 3.15 h
IC50 [16]: 1.6 µM
permeability [20]: BLD
IC50 [18]: > 30 µM
IC50 [2]: 0.014 µM

Compound: N#Cc1cccc(NC(=O)NCc2cccc(C(=O)NCCc3ccncc3)c2)c1
IC50 [2]: 5.5 µM

Now from value to compound:

IC50 [1]: 1.2 µM
Compound: COc1ccc(C(=O)NCc2cccc(C(=O)NCC3CCCO3)c2)cc1OC (racemic)

IC50 [2]: > 7000 µM
Compound: Cc1ccc(C(=O)NCc2cccc(C(=O)NCCc3ccncc3)c2)cc1C

IC50 [1]: 685 µM
Compound: COc1ccc(C(=O)NCc2cccc(C(=O)Nc3ccc4cnccc4c3)c2)cc1OC

IC50 [2]: > 7000 µM
Compound: O=C(NCCc1ccncc1)c1cccc(CNC(=O)c2ccc3c(c2)OCO3)c1

IC50 [2]: > 7000 µM
Compound: COc1cccc(C(=O)NCc2cccc(C(=O)NCCc3ccncc3)c2)c1

IC50 [3]: > 7 µM
IC50 [2]: > 7 µM
Compound: COc1cccc(C(=O)NCc2cccc(C(=O)Nc3ccc(CN(C)C)cc3)c2)c1

IC50 [1]: 100 µM
IC50 [3]: 0.32 µM
Compound: COc1ccc(C(=O)NCc2cccc(C(=O)Nc3ccc4c(c3)CCNC4)c2)cc1OC

IC50 [4]: > 30 µM
IC50 [5]: > 5 µM
Papp B→A [6]: 27.1 ×10⁻⁶ cm/s
IC50 [7]: 1.2 µM
solubility [8]: > 85 µg/mL
IC50 [9]: > 30 µM
IC50 [10]: > 30 µM
IC50 [11]: > 5 µM
IC50 [12]: > 30 µM
IC50 [13]: 1.7 µM
half-life [14]: 0.917 h
Papp [15]: 16 ×10⁻⁶ cm/s
IC50 [16]: > 5 µM
Papp A→B [17]: 0.3 ×10⁻⁶ cm/s
IC50 [18]: > 30 µM
IC50 [2]: 0.046 µM
Compound: COc1ccc(C(=O)NCc2cccc(C(=O)Nc3ccc4c(c3)CN(C)CC4)c2)cc1OC

IC50 [1]: 8 µM
IC50 [3]: 0.014 µM
Compound: CN(C)Cc1ccc(NC(=O)c2cccc(CNC(=O)Nc3ccc(C(N)=O)cc3)c2)cc1

IC50 [1]: 160 µM
IC50 [3]: 0.35 µM
Compound: COc1ccc(C(=O)NCc2cccc(C(=O)Nc3ccc(CN(C)C)cc3)c2)cc1C(F)(F)F

IC50 [2]: > 6000 µM
Compound: COc1ccc(C(=O)Nc2cccc(C(=O)NCCC3CCCNC3)c2)cc1OC (stereo not drawn)

IC50 [2]: > 6000 µM
Compound: COc1ccc(CNC(=O)c2cccc(C(=O)NCCC3CCCNC3)c2)cc1OC (stereo not drawn)
